In assay [1] the target is Thrombin & trypsin (Homo sapiens) (UniProt P00734+P07477+P07478+P35030). Nature of the assay: Selectivity against Thrombin to that of trypsin. The assay is classed as protein assay.
Assay [2] has as its target Integrin alpha-IIb/beta-3 (Homo sapiens, UniProt P05106+P08514). Nature of the assay: Inhibitory activity against binding of Fibrinogen to thrombocyte alpha IIb beta-3 integrin. The format is protein-complex assay.
Assay [3] is described as follows: Inhibitory activity against thrombin.
A short description of assay [4]: Inhibitory activity against trypsin.
Assay [5] in a line: Inhibitory activity against Coagulation factor X.
Assay [6] is described as follows: Inhibitory activity against thrombocyte aggregation induced by collagen. The format is functional.
Assay [7] in a line: Inhibitory activity against thrombocyte aggregation induced by ADP. The assay is classed as functional.

Sequence of Integrin alpha-IIb/beta-3 (P05106 27-788 limits assumed): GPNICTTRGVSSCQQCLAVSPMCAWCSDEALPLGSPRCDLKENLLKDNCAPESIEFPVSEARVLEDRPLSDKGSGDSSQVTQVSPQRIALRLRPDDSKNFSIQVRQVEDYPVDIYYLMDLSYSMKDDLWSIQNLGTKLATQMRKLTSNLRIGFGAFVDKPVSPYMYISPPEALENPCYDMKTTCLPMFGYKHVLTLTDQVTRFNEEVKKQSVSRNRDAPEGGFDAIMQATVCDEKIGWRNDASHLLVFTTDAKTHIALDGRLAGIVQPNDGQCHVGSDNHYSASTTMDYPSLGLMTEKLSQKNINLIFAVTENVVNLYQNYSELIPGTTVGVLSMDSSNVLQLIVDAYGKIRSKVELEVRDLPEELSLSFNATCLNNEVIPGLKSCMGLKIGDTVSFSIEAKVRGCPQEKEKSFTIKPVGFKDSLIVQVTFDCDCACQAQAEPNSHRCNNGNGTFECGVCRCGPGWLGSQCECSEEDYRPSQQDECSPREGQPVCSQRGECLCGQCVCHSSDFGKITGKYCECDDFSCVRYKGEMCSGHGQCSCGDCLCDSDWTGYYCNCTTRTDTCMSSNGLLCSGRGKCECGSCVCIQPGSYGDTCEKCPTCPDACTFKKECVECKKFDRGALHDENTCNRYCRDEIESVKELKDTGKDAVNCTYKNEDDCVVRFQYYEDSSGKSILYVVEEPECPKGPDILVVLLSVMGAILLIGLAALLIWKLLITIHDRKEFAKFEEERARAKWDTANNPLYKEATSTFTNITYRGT
Sequence of Integrin alpha-IIb/beta-3 (P08514 32-887 limits assumed): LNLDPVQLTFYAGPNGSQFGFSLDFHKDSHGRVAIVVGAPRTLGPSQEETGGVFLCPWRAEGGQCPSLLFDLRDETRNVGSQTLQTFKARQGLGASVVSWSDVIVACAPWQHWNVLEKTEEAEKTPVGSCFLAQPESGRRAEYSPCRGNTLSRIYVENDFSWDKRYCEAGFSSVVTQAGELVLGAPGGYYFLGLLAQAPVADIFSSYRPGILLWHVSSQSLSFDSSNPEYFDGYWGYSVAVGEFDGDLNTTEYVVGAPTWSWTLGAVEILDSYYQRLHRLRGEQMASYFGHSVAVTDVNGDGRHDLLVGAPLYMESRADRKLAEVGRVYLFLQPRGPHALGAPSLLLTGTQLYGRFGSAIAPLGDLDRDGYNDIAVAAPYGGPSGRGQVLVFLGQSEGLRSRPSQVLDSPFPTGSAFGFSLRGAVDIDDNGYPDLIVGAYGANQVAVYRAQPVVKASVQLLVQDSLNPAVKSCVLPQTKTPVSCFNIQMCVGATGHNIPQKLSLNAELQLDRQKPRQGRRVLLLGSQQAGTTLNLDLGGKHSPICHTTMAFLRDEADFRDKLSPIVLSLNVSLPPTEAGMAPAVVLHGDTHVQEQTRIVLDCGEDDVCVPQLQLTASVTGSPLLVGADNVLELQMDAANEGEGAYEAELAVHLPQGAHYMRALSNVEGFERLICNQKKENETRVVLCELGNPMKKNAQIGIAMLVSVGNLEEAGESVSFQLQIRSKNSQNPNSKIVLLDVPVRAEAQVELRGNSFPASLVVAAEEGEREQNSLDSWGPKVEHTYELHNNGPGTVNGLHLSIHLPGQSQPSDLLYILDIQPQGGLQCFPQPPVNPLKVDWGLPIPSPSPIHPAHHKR
Sequence of Integrin alpha-IIb/beta-3 (P08514 891-1039 limits assumed): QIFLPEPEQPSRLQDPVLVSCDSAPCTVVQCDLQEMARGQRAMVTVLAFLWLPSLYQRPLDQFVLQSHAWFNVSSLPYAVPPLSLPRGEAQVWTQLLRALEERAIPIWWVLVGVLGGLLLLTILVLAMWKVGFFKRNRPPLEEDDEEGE

For `N=C(N)c1ccc(CN2C(=O)COc3cc(NC(=O)C(Cc4ccccc4)C(=O)O)ccc32)cc1` (stereo not given), in assay [1], the Selectivity stood at 0.1. For the same compound, the inhibition constant (Ki) in assay [2] stood at 3.94 µM; in assay [3] it was 53.8 µM; in assay [4] it was 5.5 µM; in assay [5], 31.6 µM.

For the compound `CCOC(=O)C[C@H](NC(=O)c1ccc2c(c1)OC(OCc1ccc(C(=N)N)cc1)C(=O)N2C)c1ccccc1` (stereo not given in full), in assay [1], the Selectivity was determined as 4.2. Further, the results for the inhibitory constant (Ki) in assay [2], in assay [4] and in assay [5] were 24.6 µM, 16 µM and 54.6 µM, respectively.

In turn, `CCOC(=O)[C@H](C)NC(=O)C(Cc1ccccc1)C(=O)Nc1ccc2c(c1)OCC(=O)N2Cc1ccc(C(=N)N)cc1` (stereo not given in full) returned a Selectivity in assay [1] of 0.57. Moreover, the Ki in assay [2] worked out at 7.3 µM; in assay [3], 21.3 µM; in assay [4], 12.1 µM; in assay [5], 26.8 µM.

On to `CN1C(=O)C(OCc2ccc(C(=N)N)cc2)Oc2cc(C(=O)N[C@@H](CC(=O)O)c3ccccc3)ccc21` (stereo not given in full), for which the Ki was 1.64 µM in assay [2], 14.9 µM in assay [3], 26.5 µM in assay [4] and above 200 µM in assay [5].

For the compound `COC(=O)C(Cc1ccccc1)C(=O)Nc1ccc2c(c1)OCC(=O)N2Cc1ccc(C(=N)N)cc1` (stereo not given), in assay [1], the Selectivity was 0.14. Further, the figures for the half-maximal inhibitory concentration (IC50) in assay [6] and in assay [7] were 85 µM and 63 µM, respectively. Moreover, the inhibition constant (Ki) in assay [2] is 0.973 µM; in assay [3], 38.6 µM; in assay [4] it was 5.3 µM; in assay [5] it was 22.3 µM.

The compound `CCOC(=O)CC[C@H](NC(=O)[C@H](Cc1ccccc1)C(=O)Nc1ccc2c(c1)OCC(=O)N2Cc1ccc(C(=N)N)cc1)C(=O)OCC` had a Selectivity in assay [1] of 2. Besides, the inhibition constant (Ki) in assay [2] came to 3.94 µM; in assay [3], 23.3 µM; in assay [4], 46.2 µM; in assay [5] it was 54.1 µM.

Take `CCOC(=O)[C@H](Cc1ccccc1)C(=O)Nc1ccc2c(c1)OCC(=O)N2Cc1ccc(C(=N)N)cc1`: in assay [1], the Selectivity is 0.3. The Ki came out at 5.19 µM in assay [2], 16.3 µM in assay [3], 5.5 µM in assay [4] and 8.8 µM in assay [5].

The compound `CCOC(=O)[C@H](C)NC(=O)[C@H](Cc1ccccc1)C(=O)Nc1ccc2c(c1)OCC(=O)N2Cc1ccc(C(=N)N)cc1` had a Selectivity in assay [1] of 0.5. The inhibition constant Ki in assay [2] was 59.1 µM; in assay [3], 20.6 µM; in assay [4], 9.6 µM; in assay [5] it was 21.1 µM.

For `CCOC(=O)CC[C@H](NC(=O)C(Cc1ccccc1)C(=O)Nc1ccc2c(c1)OCC(=O)N2Cc1ccc(C(=N)N)cc1)C(=O)OCC` (stereo not given in full), in assay [1], the Selectivity came to 0.5. Moreover, the Ki in assay [2] is 3.66 µM; in assay [3], 21.6 µM; in assay [4], 10.5 µM; in assay [5], 19.2 µM.

Consider `N=C(N)c1ccc(CN2C(=O)COc3cc(NC(=O)C(Cc4ccccc4)C(=O)N[C@@H](CCC(=O)O)C(=O)O)ccc32)cc1` (stereo not given in full), for which the Selectivity in assay [1] amounted to 0.4. The Ki in assay [2] was 0.206 µM; in assay [3], 49.4 µM; in assay [4], 17.7 µM; in assay [5], 25.7 µM.

Turning to `CCOC(=O)CNC(=O)C(Cc1ccccc1)C(=O)Nc1ccc2c(c1)OCC(=O)N2Cc1ccc(C(=N)N)cc1` (stereo not given), the Selectivity in assay [1] was 0.69. Besides, the inhibitory constant (Ki) was determined as 6.84 µM in assay [2], 12.1 µM in assay [3], 8.4 µM in assay [4] and 20.6 µM in assay [5].
